Experimental findings from patent US20060275285A1, “Methods of inhibiting a GPCR” (Amgen Inc., priority 2005, published 2006) are described below.

One data set deals with GPR23. Description: GPR23-specific antisense oligos evaluated for activity in bEND cells. It counts as cell-based. The following applies: bEND (murine brain endothelial) cells. The protocol: GPR23-specific antisense oligos were generated by Isis Pharmaceuticals (Carlsbad, Calif.) and were evaluated for activity in bEND (murine brain endothelial) cells. […] An oligo without homology to any known gene was provided as a control ([…] (SEQ ID NO:10)). For the studies, male C57 black 6 mice were fed a high fat diet for 12 weeks (from 3 weeks of age) and analyzed for parameters of diet induced obesity. Animals that show appropriate symptoms of diet induced obesity (e.g., hyperinsulemia and weight gain with no signs of illness) were divided into 5 groups (10 animals/group) and treated as described below: […]

For a further data set, the system named is GPR23 mRNA. Description: GPR23 mRNA quantitation by real time PCR in white adipose tissue of diet induced obese mice. The data set is classed as in vivo. The following applies: Groups 3 and 4 (25 and 50 mg/kg IP weekly for 7 weeks) vs Group 2. The protocol:
(§1) GPR23-specific antisense oligos were generated by Isis Pharmaceuticals (Carlsbad, Calif.) and were evaluated for activity in bEND (murine brain endothelial) cells. […] An oligo without homology to any known gene was provided as a control ([…] (SEQ ID NO:10)). For the studies, male C57 black 6 mice were fed a high fat diet for 12 weeks (from 3 weeks of age) and analyzed for parameters of diet induced obesity. Animals that show appropriate symptoms of diet induced obesity (e.g., hyperinsulemia and weight gain with no signs of illness) were divided into 5 groups (10 animals/group) and treated as described below:
(§2) Group 1 (saline treated control): saline IP injection weekly for 7 weeks;
(§3) Group 2 (universal oligo control): oligo IP injection 50 mg/kg body weight, weekly for 7 weeks;
(§4) Group 3 (GPR23 antisense oligo (ASO) treated): oligo IP injection, 25 mg/kg body weight, weekly for 7 weeks;
(§5) Group 4 (GPR23 ASO treated): oligo IP injection, 50 mg/kg body weight, weekly for 7 weeks; and
(§6) Group 5: (rosiglitizone treated control): 50 mg/kg body weight for 7 weeks.
Fed glucose measurements were made at the beginning, midpoint and endpoint of the study. […] At the end of the study, animals were sacrificed and tissue samples (liver, white adipose tissue, brown adipose tissue) were taken for histological evaluation and GPR23 mRNA quantitation. […]
For orientation: In qPCR the cycle at which signal appears reflects the starting amount.

Data set [1] concerns male C57 black 6 mice fed a high fat diet (diet induced obesity). Description: GPR23 antisense study in diet induced obesity mice (body composition, serum parameters, liver). It counts as in vivo. The following applies: for body weight: 50 mg/kg IP weekly for 7 weeks (Group 4) vs control animals. The protocol: as §1, §2, §3, §4, §5, §6
(§7) Fed glucose measurements were made at the beginning, midpoint and endpoint of the study. A fasting GTT measurement was done at the midpoint and endpoint of the study. Fed plasma samples were tested for insulin, total cholesterol, free fatty acids, triglycerides, and liver enzymes. At the end of the study, animals were sacrificed and tissue samples (liver, white adipose tissue, brown adipose tissue) were taken for histological evaluation and GPR23 mRNA quantitation.

Another data set deals with fatty acid synthase mRNA. Description: Gene profiling by real time PCR of adipose tissue: fatty acid synthase. It counts as in vivo, mice. The note with it: white adipose tissue; Groups 3 and 4 (25 and 50 mg/kg). The protocol: as §7
(§8) Gene profiling experiments were performed to provide additional insight into the mechanism of action associated with GPR23.

In the next data set the test system is hormone sensitive lipase. In words: Gene profiling by real time PCR of adipose tissue: hormone sensitive lipase. It counts as in vivo, mice. The following applies: Groups 3 and 4 (25 and 50 mg/kg). The protocol:
as §7, §8

The next data set concerns PPAR-gamma. Description: Gene profiling by real time PCR of adipose tissue: PPAR-gamma. It counts as in vivo, mice. The note with it: Groups 3 and 4 (25 and 50 mg/kg). The protocol: as §7, §8
Setting [2] is: 50 mg/kg IP weekly for 7 weeks (Group 4) vs control oligo (Group 2).
Setting [3] is: Groups 3 and 4 (25 and 50 mg/kg), not statistically significant, data not shown.

Turning to “CTCAGTATCATTAGCTTCAA (listed as DNA, chemistry not given here; listed as Mus musculus) [GPR23 antisense oligo]”, in the data set with GPR23, the “expression of GPR23 in cultured cells” value is “markedly reduced”. Further, the “reduction of GPR23 mRNA levels relative to control oligo treated animals” value with GPR23 mRNA is recorded as roughly 70%. Also, the body weight result in data set [1] is listed as “weighed slightly less than control animals”. In addition, the body weight entry in data set [1] (listed as antisense oligo) is given as “weighed less than control animals”. Besides, in data set [1] (setting [2]), the fat mass entry is “statistically significant decrease” and the lean mass result was “statistically significant increase”. Besides, in data set [1] (Groups 3 and 4 (25 and 50 mg/kg)), the liver fat scores entry is given as “lower”. Besides, the “liver enzymes (a parameter of toxicity)” value in data set [1] (Groups 3 and 4 (25 and 50 mg/kg) compared to control groups (Groups 1 and 2)) was “not significantly different”. In addition, in data set [1] (setting [3]), the “free fatty acid levels” value is listed as “lower” and the triglyceride levels result was “lower”. Besides, in data set [1] (both 25 mg/kg and 50 mg/kg doses (Groups 3 and 4), change from baseline at week 7, relative to controls), the serum cholesterol levels result is reported as “lowered relative to controls”. For the same sequence, the glucose tolerance tests result in data set [1] (fasting GTT, antisense oligo treatment) is “not affected”. Further, the “fatty acid synthase mRNA levels” value with fatty acid synthase mRNA was “significantly reduced in a dose-dependent manner”. Moreover, in the data set with hormone sensitive lipase, the “levels of hormone sensitive lipase” value is on record as “did not change significantly”. The “levels of PPAR-gamma” value in the data set with PPAR-gamma is recorded as “did not change significantly”.
